20 molecules from patent publication US7741327B2 (Hoffmann-La Roche Inc., priority 2008, dated 2010) can be followed below.

The target in the test is T1, Recombinant human liver GK1 (GST-GK) (Homo sapiens, UniProt P35557).
T1 construct: made in house; host or cells: E. coli
T1 sequence (P35557 1-466 isoform P35557-2): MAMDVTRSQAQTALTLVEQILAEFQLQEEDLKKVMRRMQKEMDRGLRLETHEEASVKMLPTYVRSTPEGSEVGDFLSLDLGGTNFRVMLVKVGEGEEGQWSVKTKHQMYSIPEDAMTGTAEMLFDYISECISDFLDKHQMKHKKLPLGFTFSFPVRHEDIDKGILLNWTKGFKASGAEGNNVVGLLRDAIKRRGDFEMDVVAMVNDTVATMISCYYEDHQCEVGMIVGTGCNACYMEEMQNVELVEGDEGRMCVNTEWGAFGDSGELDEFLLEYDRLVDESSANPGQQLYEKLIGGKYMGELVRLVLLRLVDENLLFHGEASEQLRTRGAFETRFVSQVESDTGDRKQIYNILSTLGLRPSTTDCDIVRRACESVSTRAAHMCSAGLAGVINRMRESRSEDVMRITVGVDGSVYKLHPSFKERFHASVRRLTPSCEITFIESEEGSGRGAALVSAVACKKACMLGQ
Put plainly: In vitro glucokinase activity (G6PDH-coupled NADH assay). The format is biochemical. To be noted: 30° C., 5 mM D-glucose, 10% DMSO. Here is the method: Glucokinase In Vitro Assay Protocol: Glucokinase (GK) was assayed by coupling the production of glucose-6-phosphate to the generation of NADH with glucose-6-phosphate dehydrogenase (G6PDH, 0.75-1 kunits/mg; Boehringer Mannheim, Indianapolis, Ind.) from Leuconostoc mesenteroides as the coupling enzyme (Scheme 2).
Recombinant human liver GK1 was expressed in E. coli as a glutathione S-transferase fusion protein (GST-GK) [Liang et al, 1995] and was purified by chromatography over a glutathione-Sepharose 4B affinity column using the procedure provided by the manufacturer (Amersham Pharmacia Biotech, Piscataway, N.J.).
The assay was conducted at 30° C. in a flat bottom 96-well tissue culture plate from Costar (Cambridge, Mass.) with a final incubation volume of 120 μL. The incubation reaction contained the following: 25 mM Hepes buffer (pH 7.1), 25 mM KCl, 5 mM D-glucose, 1 mM ATP, 1.8 mM NAD, 2 mM MgCl2, 1 μM sorbitol-6-phosphate, 1 mM dithiothreitol, test drug or 10% dimethylsulfoxide, ˜7 units/ml G6PDH, and GK (see below). All organic reagents were >98% pure and were from Boehringer Mannheim with the exceptions of D-glucose and Hepes which were from Sigma Chemical Co, St Louis, Mo. Test compounds were dissolved in dimethylsulfoxide and were added to the incubation reaction minus GST-GK in a volume of 12 μL to yield a final dimethylsulfoxide concentration of 10%. This mix was pre-incubated in the temperature controlled chamber of a SPECTRAmax 250 microplate spectrophotometer (Molecular Devices Corporation, Sunnyvale, Calif.) for 10 min to allow temperature equilibrium and then the reaction was started by the addition of 20 μL GST-GK.
After addition of enzyme, the increase in optical density (OD) at 340 nm was monitored spectrophotometrically to determine the rate of change (OD340 per min). The GK activity (OD340/min) in control wells (10% DMSO minus GK activators) was compared with the activity in wells containing test GK activators, and the concentration of activator that produced a 50% increase in the activity of GK, i.e., the SC1.5, was calculated. The table below provides the in vitro glucokinase activity for the compounds in the Examples: […]

With `COc1cccc(OC2=CC(=O)N(C(CC3CCOCC3)C(=O)Nc3ccn(CC(C)(C)O)n3)C2)c1Cl` (centres unmarked) [Example 50, 2-[4-(2-Chloro-3-methoxy-phenoxy)-2-oxo-2,5-dihydro-pyrrol-1-yl]-N-[1-(2-hydroxy-2-methyl-propyl)-1H-pyrazol-3-yl]-3-(tetrahydro-pyran-4-yl)-propionamide], the “SC1.5 (concentration of activator that produced a 50% increase in the activity of GK)” value turned out to be 0.033 µM.

With `COc1cccc(OC2=CC(=O)N([C@H](CC3CCOCC3)C(=O)Nc3ccn(CC(C)(C)O)n3)C2)c1Cl` [Example 52, (R)-2-[4-(2-Chloro-3-methoxy-phenoxy)-2-oxo-2,5-dihydro-pyrrol-1-yl]-N-[1-(2-hydroxy-2-methyl-propyl)-1H-pyrazol-3-yl]-3-(tetrahydro-pyran-4-yl)-propionamide], the “SC1.5 (concentration of activator that produced a 50% increase in the activity of GK)” value is 1.027 µM.

For `COc1cccc(OC2=CC(=O)N(C(CC3CCOCC3)C(=O)Nc3ccn(C[C@@H](O)CO)n3)C2)c1Cl` (stereo partly drawn) [Example 53, 2-[4-(2-Chloro-3-methoxy-phenoxy)-2-oxo-2,5-dihydro-pyrrol-1-yl]-N-[1-((R)-2,3-dihydroxy-propyl)-1H-pyrazol-3-yl]-3-(tetrahydro-pyran-4-yl)-propionamide], the “SC1.5 (concentration of activator that produced a 50% increase in the activity of GK)” value came out at 0.053 µM.

With `COc1cccc(OC2=CC(=O)N([C@@H](CC3CCCC3)C(=O)Nc3ccn(CC(C)(C)O)n3)C2)c1Cl` [Example 54, (S)-2-[4-(2-chloro-3-methoxy-phenoxy)-2-oxo-2,5-dihydro-pyrrol-1-yl]-3-cyclopentyl-N-[1-(2-hydroxy-2-methyl-propyl)-1H-pyrazol-3-yl]-propionamide], the “SC1.5 (concentration of activator that produced a 50% increase in the activity of GK)” value came out at 0.008 µM.

With `COc1cccc(OC2=CC(=O)N([C@@H](CC3CCCC3)C(=O)Nc3ccn(C[C@@H](O)CO)n3)C2)c1Cl` [Example 55, (S)-2-[4-(2-Chloro-3-methoxy-phenoxy)-2-oxo-2,5-dihydro-pyrrol-1-yl]-3-cyclopentyl-N-[1-((R)-2,3-dihydroxy-propyl)-1H-pyrazol-3-yl]-propionamide], the “SC1.5 (concentration of activator that produced a 50% increase in the activity of GK)” value stood at 0.007 µM.

For the molecule `COC1=CC(=O)N([C@@H](CC2CCCCC2)C(=O)Nc2ccn(CC(C)(C)O)n2)C1` [Example 56, (S)-3-Cyclohexyl-N-[1-(2-hydroxy-2-methyl-propyl)-1H-pyrazol-3-yl]-2-(4-methoxy-2-oxo-2,5-dihydro-pyrrol-1-yl)-propionamide], the “SC1.5 (concentration of activator that produced a 50% increase in the activity of GK)” value worked out at 4.985 µM.

Consider `COc1cccc(OC2=CC(=O)N([C@@H](CC3CCCCC3)C(=O)Nc3ccn(CC(C)(C)O)n3)C2)c1Cl` [Example 57, (S)-2-[4-(2-Chloro-3-methoxy-phenoxy)-2-oxo-2,5-dihydro-pyrrol-1-yl]-3-cyclohexyl-N-[1-(2-hydroxy-2-methyl-propyl)-1H-pyrazol-3-yl]-propionamide], for which the “SC1.5 (concentration of activator that produced a 50% increase in the activity of GK)” value was 0.012 µM.

Regarding `CNC(=O)NC(=O)C(CC1CCCCC1)N1CC(Oc2cccc(OC)c2Cl)=CC1=O` (centres unmarked) [Example 58, 1-{2-[4-(2-Chloro-3-methoxy-phenoxy)-2-oxo-2,5-dihydro-pyrrol-1-yl]-3-cyclohexyl-propionyl}-3-methyl-urea], the “SC1.5 (concentration of activator that produced a 50% increase in the activity of GK)” value came to 1.597 µM.

Turning to `CC(C)(O)Cn1ccc(NC(=O)C(Cc2c(F)cccc2F)N2CC(Oc3c(F)cccc3F)=CC2=O)n1` (centres unmarked) [Example 59, 2-[4-(2,6-Difluoro-phenoxy)-2-oxo-2,5-dihydro-pyrrol-1-yl]-3-(2,6-difluoro-phenyl)-N-[1-(2-hydroxy-2-methyl-propyl)-1-H-pyrazol-3-yl]-propionamide], the “SC1.5 (concentration of activator that produced a 50% increase in the activity of GK)” value was found to be 1.082 µM.

Turning to `CC(C)(O)Cn1ccc(NC(=O)[C@H](CC2CCCCC2)N2CC(OCC3COc4ccccc4O3)=CC2=O)n1` (stereo partly drawn) [Example 60, (S)-3-Cyclohexyl-2-[4-(2,3-dihydro-benzo[1,4]dioxin-2-ylmethoxy)-2-oxo-2,5-dihydro-pyrrol-1-yl]-N-[1-(2-hydroxy-2-methyl-propyl)-1-H-pyrazol-3-yl]-propionamide], the “SC1.5 (concentration of activator that produced a 50% increase in the activity of GK)” value came out at 0.99 µM.

Take `CC(C)(O)Cn1ccc(NC(=O)[C@H](CC2CCCCC2)N2CC(Oc3ccccc3Cl)=CC2=O)n1` [Example 61, (S)-2-[4-(2-Chloro-phenoxy)-2-oxo-2,5-dihydro-pyrrol-1-yl]-3-cyclohexyl-N-[1-(2-hydroxy-2-methyl-propyl)-1-H-pyrazol-3-yl]-propionamide]: the “SC1.5 (concentration of activator that produced a 50% increase in the activity of GK)” value worked out at 0.006 µM.

As for `CC1(C)OC[C@@H](Cn2ccc(NC(=O)[C@H](CC3CCCCC3)N3CC(Oc4ccccc4Cl)=CC3=O)n2)O1` [Example 62], the “SC1.5 (concentration of activator that produced a 50% increase in the activity of GK)” value is 0.01 µM.

On to `O=C(Nc1ccn(C[C@@H](O)CO)n1)[C@H](CC1CCCCC1)N1CC(Oc2ccccc2Cl)=CC1=O` [Example 63, (S)-2-[4-(2-Chloro-phenoxy)-2-oxo-2,5-dihydro-pyrrol-1-yl]-3-cyclohexyl-N-[1-((R)-2,3-dihydroxy-propyl)-1-H-pyrazol-3-yl]-propionamide], for which the “SC1.5 (concentration of activator that produced a 50% increase in the activity of GK)” value was found to be 0.009 µM.

`CC(C)C[C@@H](C(=O)Nc1ccn(C[C@@H]2COC(C)(C)O2)n1)N1CC(Oc2ccccc2Cl)=CC1=O` [Example 65]: the “SC1.5 (concentration of activator that produced a 50% increase in the activity of GK)” value was determined as 0.527 µM.

Take `CC(C)(O)Cn1ccc(NC(=O)[C@H](CC2CCCCC2)N2CC(Oc3c(F)cccc3Cl)=CC2=O)n1` [Example 67, (S)-2-[4-(2-Chloro-6-fluoro-phenoxy)-2-oxo-2,5-dihydro-pyrrol-1-yl]-3-cyclohexyl-N-[1-(2-hydroxy-2-methyl-propyl)-1H-pyrazol-3-yl]-propionamide]: the “SC1.5 (concentration of activator that produced a 50% increase in the activity of GK)” value was 0.028 µM.

For the molecule `Cn1ccc(NC(=O)[C@H](CC2CCCCC2)N2CC(Oc3c(F)cccc3Cl)=CC2=O)n1` [Example 68, (S)-2-[4-(2-Chloro-6-fluoro-phenoxy)-2-oxo-2,5-dihydro-pyrrol-1-yl]-3-cyclohexyl-N-(1-methyl-1H-pyrazol-3-yl)-propionamide], the “SC1.5 (concentration of activator that produced a 50% increase in the activity of GK)” value turned out to be 0.055 µM.

Consider `COC(=O)c1ccc(NC(=O)[C@H](CC2CCCCC2)N2CC(Oc3c(F)cccc3Cl)=CC2=O)nc1` [Example 69, 6-{(S)-2-[4-(2-Chloro-6-fluoro-phenoxy)-2-oxo-2,5-dihydro-pyrrol-1-yl]-3-cyclohexyl-propionylamino}-nicotinic acid methyl ester], for which the “SC1.5 (concentration of activator that produced a 50% increase in the activity of GK)” value worked out at 0.047 µM.

Take `O=C(O)c1ccc(NC(=O)[C@H](CC2CCCCC2)N2CC(Oc3c(F)cccc3Cl)=CC2=O)nc1` [Example 70, 6-{(S)-2-[4-(2-Chloro-6-fluoro-phenoxy)-2-oxo-2,5-dihydro-pyrrol-1-yl]-3-cyclohexyl-propionylamino}-nicotinic acid]: the “SC1.5 (concentration of activator that produced a 50% increase in the activity of GK)” value was 0.048 µM.

For the molecule `Cl.O=C(Nc1cnccn1)[C@H](CC1CCCCC1)N1CC(Oc2c(F)cccc2Cl)=CC1=O` [Example 71, (S)-2-[4-(2-Chloro-6-fluoro-phenoxy)-2-oxo-2,5-dihydro-pyrrol-1-yl]-3-cyclohexyl-N-pyrazin-2-yl-propionamide Hydrochloride], the “SC1.5 (concentration of activator that produced a 50% increase in the activity of GK)” value worked out at 0.058 µM.

For `CC(C)(O)Cn1ccc(NC(=O)[C@H](CC2CCCCC2)N2CC(Oc3c(F)ccc(Cl)c3F)=CC2=O)n1` [Example 72, (S)-2-[4-(3-Chloro-2,6-difluoro-phenoxy)-2-oxo-2,5-dihydro-pyrrol-1-yl]-3-cyclohexyl-N-[1-(2-hydroxy-2-methyl-propyl)-1H-pyrazol-3-yl]-propionamide], the “SC1.5 (concentration of activator that produced a 50% increase in the activity of GK)” value stood at 0.024 µM.
